≈ marks a conversion by molar mass, not a printed value. Calls of active or inactive are those of the source. The rule behind the calls is not given here.
How the values were obtained:
Curvularia lunata = test: Antifungal activity against Curvularia lunata assessed as reduction in fungal cell growth incubated for 48 hrs by serial dilution method; type: functional
Aspergillus flavus = test: Antifungal activity against Aspergillus flavus assessed as reduction in fungal cell growth incubated for 48 hrs by serial dilution method; type: functional
Ralstonia solanacearum = test: Antibacterial activity against Ralstonia solanacearum assessed as reduction in bacterial cell growth incubated for 24 hrs by filter paper assay; type: functional
Escherichia coli = test: Antibacterial activity against Escherichia coli assessed as reduction in bacterial cell growth incubated for 24 hrs by filter paper assay; type: functional
Staphylococcus aureus = test: Antibacterial activity against Staphylococcus aureus assessed as reduction in bacterial cell growth incubated for 24 hrs by filter paper assay; type: functional
Penicillium citrinum = test: Antifungal activity against Penicillium citrinum assessed as reduction in fungal cell growth incubated for 48 hrs by serial dilution method; type: functional
Acetylcholinesterase = Acetylcholinesterase (Electrophorus electricus, UniProt O42275); test: Inhibition of electric eel AChE by Ellman's colorimetry
Chain of Acetylcholinesterase (O42275 whole entry): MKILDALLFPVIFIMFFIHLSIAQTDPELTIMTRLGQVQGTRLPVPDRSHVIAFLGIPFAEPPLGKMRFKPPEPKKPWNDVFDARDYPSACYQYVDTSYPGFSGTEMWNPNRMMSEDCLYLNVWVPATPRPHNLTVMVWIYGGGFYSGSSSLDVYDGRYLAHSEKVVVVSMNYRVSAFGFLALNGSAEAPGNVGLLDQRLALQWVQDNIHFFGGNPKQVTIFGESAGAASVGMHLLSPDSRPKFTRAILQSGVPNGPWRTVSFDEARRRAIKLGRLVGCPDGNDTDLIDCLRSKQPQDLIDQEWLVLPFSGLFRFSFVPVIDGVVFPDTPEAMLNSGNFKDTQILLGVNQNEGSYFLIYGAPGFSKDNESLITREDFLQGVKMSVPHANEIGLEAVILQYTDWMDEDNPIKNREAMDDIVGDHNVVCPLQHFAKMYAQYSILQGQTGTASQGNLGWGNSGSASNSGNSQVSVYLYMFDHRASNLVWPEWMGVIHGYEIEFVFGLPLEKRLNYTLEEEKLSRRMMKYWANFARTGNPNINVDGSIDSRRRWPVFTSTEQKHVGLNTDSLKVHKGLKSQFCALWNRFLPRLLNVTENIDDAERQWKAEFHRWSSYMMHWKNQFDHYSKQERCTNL

[1] = tested on: Colletotrichum orbiculare; test: Antifungal activity against Colletotrichum orbiculare assessed as reduction in fungal cell growth incubated for 48 hrs by serial dilution method; type: functional
[2] = target: Acetylcholinesterase (Electrophorus electricus) (UniProt O42275); test: Inhibition of electric eel AChE by at 1 mg/ml Ellman's colorimetry relative to control
Chain of Acetylcholinesterase (Electrophorus electricus) (O42275 24-633 limits assumed): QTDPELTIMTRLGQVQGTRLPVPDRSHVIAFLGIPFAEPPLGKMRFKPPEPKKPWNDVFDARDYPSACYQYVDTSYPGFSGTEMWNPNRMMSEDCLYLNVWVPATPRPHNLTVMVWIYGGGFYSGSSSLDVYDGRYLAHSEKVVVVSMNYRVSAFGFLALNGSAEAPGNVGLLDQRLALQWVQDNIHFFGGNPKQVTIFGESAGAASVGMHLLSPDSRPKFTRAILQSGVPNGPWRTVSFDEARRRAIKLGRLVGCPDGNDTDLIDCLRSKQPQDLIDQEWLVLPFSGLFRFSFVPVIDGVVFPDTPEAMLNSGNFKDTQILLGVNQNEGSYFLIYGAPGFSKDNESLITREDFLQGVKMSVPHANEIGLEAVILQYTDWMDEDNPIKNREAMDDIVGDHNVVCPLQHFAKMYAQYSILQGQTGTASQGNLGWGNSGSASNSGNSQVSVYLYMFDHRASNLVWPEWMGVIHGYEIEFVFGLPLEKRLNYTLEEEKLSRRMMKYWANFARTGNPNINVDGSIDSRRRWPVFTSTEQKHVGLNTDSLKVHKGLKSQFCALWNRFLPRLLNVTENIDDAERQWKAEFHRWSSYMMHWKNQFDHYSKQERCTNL

[3] = tested on: Fusarium oxysporum f. sp. vasinfectum; test: Antifungal activity against Fusarium oxysporum sp. vasinfectum assessed as reduction in fungal cell growth incubated for 48 hrs by serial dilution method; type: functional
Candida = test: Antifungal activity against […] assessed as reduction in fungal cell growth incubated for 48 hrs by serial dilution method; type: functional
Cytospora = test: Antifungal activity against Cytospora juglandis assessed as reduction in fungal cell growth incubated for 48 hrs by serial dilution method; type: functional
Cryptococcus neoformans = test: Antifungal activity against Cryptococcus neoformans assessed as reduction in fungal cell growth incubated for 48 hrs by serial dilution method; type: functional
Bacillus cereus = test: Antibacterial activity against Bacillus cereus assessed as reduction in bacterial cell growth incubated for 24 hrs by filter paper assay; type: functional
Verticillium dahliae = test: Antifungal activity against Verticillium dahliae assessed as reduction in fungal cell growth incubated for 48 hrs by serial dilution method; type: functional
Pseudomonas aeruginosa = test: Antibacterial activity against Pseudomonas aeruginosa assessed as reduction in bacterial cell growth incubated for 24 hrs by filter paper assay; type: functional
Candida tropicalis = test: Antifungal activity against Candida tropicalis assessed as reduction in fungal cell growth incubated for 48 hrs by serial dilution method; type: functional
Aspergillus niger = test: Antifungal activity against Aspergillus niger assessed as reduction in fungal cell growth incubated for 48 hrs by serial dilution method; type: functional
Fusarium oxysporum = test: Antifungal activity against Fusarium oxysporum assessed as reduction in fungal cell growth incubated for 48 hrs by serial dilution method; type: functional

Row | SMILES | MIC (Curvularia lunata) | MIC (Aspergillus flavus) | MIC (Ralstonia solanacearum) | MIC (Escherichia coli) | MIC (Staphylococcus aureus) | MIC (Penicillium citrinum) | IC50 (Acetylcholinesterase) | MIC [1] | inhibition [2] | MIC [3] | MIC (Candida) | MIC (Cytospora) | MIC (Cryptococcus neoformans) | MIC (Bacillus cereus) | MIC (Verticillium dahliae) | MIC (Pseudomonas aeruginosa) | MIC (Candida tropicalis) | MIC (Aspergillus niger) | MIC (Fusarium oxysporum)
1 | Cc1cccc(CN2c3ccccc3C3(Cc4cccc(C)c4)CCN(S(=O)(=O)c4ccccc4)C23)c1 (centres undefined) | inactive | 250 µg/mL (≈ 491 µM) | inactive | 250 µg/mL (≈ 491 µM) | inactive | inactive | 2810 nM | 250 µg/mL (≈ 491 µM) | > 80% | 250 µg/mL (≈ 491 µM) | 250 µg/mL (≈ 491 µM) | 250 µg/mL (≈ 491 µM) | inactive | 125 µg/mL (≈ 246 µM) | 31.2 µg/mL (≈ 61.4 µM) | 125 µg/mL (≈ 246 µM) | 125 µg/mL (≈ 246 µM) | 250 µg/mL (≈ 491 µM) | 250 µg/mL (≈ 491 µM)
2 | Cc1ccc(C(=O)N2CCCC3(O)c4ccccc4N(C)C23)cc1 (centres undefined) | inactive | inactive | inactive | inactive | inactive | inactive | 2850 nM | inactive | > 80% | inactive | inactive | inactive | inactive | inactive | 250 µg/mL (≈ 775 µM) | 250 µg/mL (≈ 775 µM) | inactive | inactive | inactive
3 | CCC(=O)N1CCCC2(O)c3ccccc3N(C)C12 (centres undefined) | inactive | inactive | 31.2 µg/mL (≈ 120 µM) | inactive | inactive | inactive | 0.0384 nM | inactive | > 80% | inactive | inactive | inactive | inactive | inactive | 250 µg/mL (≈ 960 µM) | 250 µg/mL (≈ 960 µM) | inactive | inactive | inactive
4 | Cc1ccc(S(=O)(=O)N2CCC3(Cc4ccccc4C)c4ccccc4N(Cc4ccccc4C)C23)cc1 (centres undefined) | inactive | 250 µg/mL (≈ 478 µM) | 250 µg/mL (≈ 478 µM) | 250 µg/mL (≈ 478 µM) | 250 µg/mL (≈ 478 µM) | inactive | 210 nM | 250 µg/mL (≈ 478 µM) | > 80% | 250 µg/mL (≈ 478 µM) | 250 µg/mL (≈ 478 µM) | 250 µg/mL (≈ 478 µM) | inactive | inactive | 62.5 µg/mL (≈ 120 µM) | inactive | 250 µg/mL (≈ 478 µM) | 250 µg/mL (≈ 478 µM) | 250 µg/mL (≈ 478 µM)
5 | CN1c2ccccc2C2(O)CCCN(C(=O)c3ccccc3)C12 (centres undefined) | inactive | inactive | 62.5 µg/mL (≈ 203 µM) | 250 µg/mL (≈ 811 µM) | 250 µg/mL (≈ 811 µM) | inactive | 259 nM | inactive | > 80% | inactive | inactive | inactive | inactive | inactive | inactive | 250 µg/mL (≈ 811 µM) | 250 µg/mL (≈ 811 µM) | inactive | inactive
6 | CC(C)C(=O)N1CCCC2(O)c3ccccc3N(C)C12 (centres undefined) | inactive | inactive | inactive | inactive | inactive | inactive | 510 nM | inactive | > 80% | inactive | inactive | inactive | inactive | inactive | 250 µg/mL (≈ 911 µM) | 250 µg/mL (≈ 911 µM) | inactive | inactive | inactive

— ChEMBL document CHEMBL4304804, “Synthesis and biological evaluation of calycanthaceous alkaloid analogs” (Bioorg Med Chem, 2019)
